Results as given in patent US20200239969A1, “METHODS AND COMPOSITIONS FOR USE OF TREX2 AS DIAGNOSTIC AND PROGNOSTIC MARKER FOR CANCER” (THE BOARD OF REGENTS OF THE UNIVERSITY OF TEXAS SYSTEM, priority 2017, published 2020).

Legend:
[1] = tested on: RAD51^K133A expressing cells; assay: miniHPRT loss of heterozygosity (LOH) assay, TG-resistant cells; type: cell-based, mouse; details: control versus compounds p<0.018, average of three replicates, FIG. 8A
Procedure: To evaluate loss of heterozygosity, the loss of function (LOF) of miniHPRT was measured by survival in 6-TG. ES cells were grown in 1× hypoxanthine, aminopterin, thymidine (HAT) for at least 4 days followed by growth in 1× HT for 2 days and then no selection for 1 day. Cells were counted and seeded at 2×10^5 cells/10 cm feeder plates (3 plates) and selected in 10 μM 6-thioguanine (6-TG). For plating efficiency, 2000 cells were seeded on two wells of 6-well feeder plate. Eight days after plating, the number of 6-TG resistant colonies was counted. […] That is >159-fold difference. The average of three biological replicates are presented (p<0.0001 for lane 4 versus lanes 5 and 6, unpaired student T test). Deletion of TREX2 in HsRAD51^K133A expressing cells reduces loss of heterozygosity to levels lower than in wild type cells. Therefore, TREX2 caused greatest loss of heterozygosity and gross chromosomal rearrangements in HR-defective cells.
TREX2-deletion also imparts a synthetic phenotype in HR-mutant and MMR-mutant cells to hydroxyurea (HU) and camptothecin (CPT). Both CPT and HU stall RFs and are used for cancer therapy. CPT binds type 1 […] to DNA to cause a break when a replication fork collides into it while HU inhibits ribonucleotide reductase to deplete nucleotides. Therefore, TX2Is enhance cytotoxicity of chemotherapeutic agents in cancer cells while protecting the patient from mutations to reduce the risk of therapy-related disease. RAD51^K133A was expressed in mouse ES cells to negatively alter HR. In these HR defective cells, TREX2-deletion decreased survival to camptothecin and reduced loss of heterozygosity (LOH) to levels lower than cells expressing RAD51 wild type (WT) and TREX2 WT. LOH is loss of miniHPRT, which can be scored as resistance to 6-thioguanine (TG). FIGS. 5A and 5B are graphical representations of the effects of TREX2-deletions measured as survival fractions. […] The average of three biological replicates are presented.
Compounds #1, 6, and 10 reduce LOH in RAD51^K133A expressing cells using miniHPRT. […]

[2] = tested on: msh2^−/− cells; assay: puro(A)10 polymerase slippage assay, puromycin resistant colonies; type: cell-based, mouse; details: puro(A)10 reporter, 10 μM TREX2 inhibitor, colonies counted about day 10, DMSO versus compounds p<0.02, FIGS. 8B, 8C
[3] = tested on: mouse embryonic stem (ES) cells; assay: reduction of mutations in mouse ES cells by screening hits; type: cell-based; details: five of nineteen screening hits
Excerpt: Assays as described here were used to screen a Chembridge Diverset library (30,000 compounds). […] These small molecules are: 4-benzoyl-2-methyphenyl (2-nitrophenoxy) acetate; N-benzyl-2-([bis(furan-2-yl)-1,2,4-triazin-3-yl] sulfanyl) acetamide; 6-(benzylcarbamoyl)-1-methycyclohex-3-ene-1-carboxylic acid; 8-(phenylamino)naphthalene-1-sulfonic acid; and benzyl 6-(furan-2-yl)-3-methyl-4-oxo-4,5,6,7-tetrahydro-1H-indole-2-carboxylate. […] TX2Is appear to be nontoxic to cells and TREX2-deletion was asymptomatic for >50% of life span.

[4] = tested on: ES cells; assay: response of ES cells to hydroxyurea (RPA32 phosphorylation, chromatid breaks)

SMILES | LOH (percentage of TG-resistant cells) [1] | spontaneous polymerase slippage (fraction of puromycin resistant cells) [2] | effect on mutations in mouse ES cells [3] | chromatid breaks ([4]; high HU dose) | DNA damage response (RPA32 phosphorylation) ([4]; high HU dose (4 mM, 5 hours)) | DNA damage response (RPA32 phosphorylation) ([4]; low HU dose (0.5 mM, 1.5 hours))
O=S(=O)(O)c1cccc2cccc(Nc3ccccc3)c12 [Compound 6, 8-(phenylamino)naphthalene-1-sulfonic acid] | reduce LOH | reduce spontaneous polymerase slippage | reduce a range of mutations | – | – | –
O=C(CSc1nnc(-c2ccco2)c(-c2ccco2)n1)NCc1ccccc1 [Compound 10, N-benzyl-2-([bis(furan-2-yl)-1,2,4-triazin-3-yl]sulfanyl) acetamide] | reduce LOH | reduce spontaneous polymerase slippage | reduce a range of mutations | – | – | –
Cc1c(C(=O)OCc2ccccc2)[nH]c2c1C(=O)CC(c1ccco1)C2 (stereo not drawn) [benzyl 6-(furan-2-yl)-3-methyl-4-oxo-4,5,6,7-tetrahydro-1H-indole-2-carboxylate] | – | – | reduce a range of mutations | – | – | –
CC1(C(=O)O)CC=CCC1C(=O)NCc1ccccc1 (stereo not drawn) [Compound 11, 6-(benzylcarbamoyl)-1-methycyclohex-3-ene-1-carboxylic acid] | – | reduce spontaneous polymerase slippage | reduce a range of mutations | – | – | –
Cc1cc(C(=O)c2ccccc2)ccc1OC(=O)COc1ccccc1[N+](=O)[O-] [Compound 1, 4-benzoyl-2-methyphenyl (2-nitrophenoxy) acetate] | reduce LOH | reduce spontaneous polymerase slippage | reduce a range of mutations | – | – | –
NC(=O)NO [HU, hydroxyurea] | – | – | – | produced more chromatid breaks | induced both an ATR and a DNA-PKCS response | induced an ATR response
